Columns and labels:
Type in all cases: in vivo, human
SARS-CoV-2 [1] = experiment: Inhalation of the smelling salt by patients during the COVID-19 pandemic; conditions: liquid CBD added
Method: In another formula, in addition to the herbal infused alcohols and concentrated herbal extracts, liquid CBD was also added. […] Apparently, CBD has synergistic effect with the probiotic produced volatile therapeutic compounds. Towards the end of preparation, the multiple strain probiotics along with their bio-active peptides and volatile therapeutic growth end products were add to the formula. The above prepared formulas were placed in a plastic or glass container with a tight closure or in a cartridge with screw type closure. Prior to inhalation, the cap is removed and, using one nostril at a time, it is inhaled deeply to reach the bottom of each and every alveoli of the lung. Conversely, the composition can also be applied using a standard nebulizer with proper liquefaction of the ingredients using a suitable solvent such as water.
The preparation was tried on patients of all age groups and genders ranging from 5 years to 75 years. They were asked to inhale once in the morning and once in the evening if they are at home or office. If they have to go to public places or a crowded place, they were asked to inhale before and after visiting the place. […]
In addition to the ingredients listed in Table 3, further testing evaluated the addition of a minimal amount of ammonium carbonate. In another composition, sodium hypochlorite has been replaced by a minimal quantity of liquid chloroform. […]

SARS-CoV-2 [2] = experiment: Oral probiotics liposome in test subjects and COVID-19 patients; conditions: acute cases of COVID-19
Source text: Recommended daily dosages for the above prepared liquid antioxidant liposome are one dose of 1 ounce or two doses of one-half ounce each. This preparation was given to several test subjects of all ages who were monitored for coronavirus infection over a period of 5.5 months during the coronavirus pandemic period (February through middle of August 2020). […] In addition, the above preparation was given to a patient who had been infected with COVID-19. This patient recovered quickly, within one to two weeks.
The liposome also was evaluated with variations of ingredients to identify which appeared to provide the better effectiveness. The standard for comparison had the liposome prepared with, herbal extracts, CBD, ascorbic acid, sodium bicarbonate, and sodium ascorbate. However, the probiotics were not included. A first test version had the liposome prepared with ascorbic acid and herbal extracts only, without sodium ascorbate, sodium bicarbonate, CBD, and probiotics. A second test version had the liposome prepared with concentrated herbal extracts of clove, turmeric, and basil in combination with ascorbic acid and sodium ascorbate along with multiple probiotics strain, but without inclusion of their all other immunomodulins and growth end products. […]

SARS-CoV-2 [3] = experiment: Nasal irrigation with the Example 1 composition in people during the COVID-19 pandemic, judged by symptoms; conditions: added to the Example 1 composition

C=C(C)[C@@H]1CCC(C)=C[C@H]1c1c(O)cc(CCCCC)cc1O [CBD, Cannabidiol]
effect of addition on efficacy of the inhaling smelling salt (SARS-CoV-2 [1]): significantly improved the efficacy | effect of CBD in the liposome on recovery (SARS-CoV-2 [2]): significantly improved the recovery | effect of inclusion in the nasal irrigation formulation (SARS-CoV-2 [3]): significantly improved the nasal clearance
